This note sets out measurements from patent publication US20110281869A1, “TETRAHYDROISOQUINOLINES AS ANTIMALARIAL AGENTS” (priority 2008, published 2011).

The first experiment has as its system P. falciparum K1. Description: Plasmodium falciparum in vitro assay ([3H] hypoxanthine incorporation). Particulars: Plasmodium falciparum; erythrocytic stages, strain K1 resistant to chloroquine and pyrimethamine, human red cells; read-out: IC50 (nM) on K1. The experiment is classed as cell-based. On the procedure:
In vitro antimalarial activity: Plasmodium falciparum in vitro assay In vitro activity against erythrocytic stages of P. falciparum is determined using a [^3H] hypoxanthine incorporation assay. One strain resistant to chloroquine and pyrimethamine (P. falciparum K1) is used in the assays, and all test compounds are compared for activity with the standard drugs chloroquine (sigma C6628) and artemisinin (sigma-36, 159-3). Compounds are diluted in DMSO to 1 mM and added to parasite cultures incubated in RPMI 1640 medium without hypoxanthine, supplemented with HEPES (5.94 g/L), NaHCO3 (2.1 g/L), neomycin (100 U/mL), Albumax (5 g/L) and washed human red cells at 2.5% hematocrit (0.3% parasitaemia). Seven serial doubling dilutions of each drug are prepared in 96-well microtitre plates and incubated in a humidifying atmosphere at 37° C.; 4% CO2, 3% O2, 93% N2.
After 48 h, 50 μl of [^3H] hypoxanthine (0.5 μCi) is added to each well of a plate. The plates are incubated for a further 24 h under the same conditions. The plates are then harvested with a Betaplate cell harvester (Wallac) and washed with distilled water. The dried filters are inserted into a plastic foil with 10 mL of scintillation fluid, and counted in a Betaplate liquid scintillation counter. IC50 values are calculated from sigmoidal inhibition curves using Microsoft Excel.
With `Cc1nc(C)c(C=CC(=O)N(Cc2ccc(-c3ccccn3)cc2)[C@@H](Cc2ccccc2)C(=O)N2CCc3ccccc3C2)s1` [Example 51, (S)—N-[1-Benzyl-2-(3,4-dihydro-1H-isoquinolin-2-yl)-2-oxo-ethyl]-3-(2,4-dimethyl-thiazol-5-yl)-N-(4-pyridin-2-yl-benzyl)-acrylamide], the IC50 was determined as 17 nM. Same read-out and setting: for `Cc1ccc(C=CC(=O)N(Cc2ccc(-c3ccccn3)cc2)[C@@H](Cc2ccccc2)C(=O)N2CCc3ccccc3C2)cn1` [Example 59, (S)—N-[1-Benzyl-2-(3,4-dihydro-1H-isoquinolin-2-yl)-2-oxo-ethyl]-3-(6-methyl-pyridin-3-yl)-N-(4-pyridin-2-yl-benzyl)-acrylamide] the value was 14 nM. Still for that read-out and setting: for `COc1ccc(C=CC(=O)N(Cc2ccc(-c3ccccn3)cc2)[C@@H](Cc2ccccc2)C(=O)N2CCc3ccccc3C2)cn1` [Example 62, (S)—N-[1-Benzyl-2-(3,4-dihydro-1H-isoquinolin-2-yl)-2-oxo-ethyl]-3-(6-methoxy-pyridin-3-yl)-N-(4-pyridin-2-yl-benzyl)-acrylamide] the value was 10 nM.

On to `Cc1c(C=CC(=O)N(Cc2ccc(-c3ccccn3)cc2)[C@@H](Cc2ccccc2)C(=O)N2CCc3ccccc3C2)cnn1C` [Example 65, (S)—N-[1-Benzyl-2-(3,4-dihydro-1H-isoquinolin-2-yl)-2-oxo-ethyl]-3-(1,5-dimethyl-1H-pyrazol-4-yl)-N-(4-pyridin-2-yl-benzyl)-acrylamide], for which the concentration for half-maximal inhibition (IC50) amounted to 10 nM. On the same count and under the same terms, for `COc1ccc2c(c1)CN(C(=O)[C@H](Cc1ccccc1)N(Cc1ccc(-c3ccccn3)cc1)C(=O)C=Cc1ccc(C(F)(F)F)cc1)CC2` [Example 69, (S)—N-[1-Benzyl-2-(7-methoxy-3,4-dihydro-1H-isoquinolin-2-yl)-2-oxo-ethyl]-N-(4-pyridin-2-yl-benzyl)-3-(4-trifluoromethyl-phenyl)-acrylamide] the value was 12 nM. The same measure, in the same setting: the same measure for `O=C([C@H](Cc1ccccc1)N(Cc1ccc(-c2ccccn2)cc1)C(=O)C=Cc1ccc(C(F)(F)F)cc1)N1CCc2c(F)cccc2C1` [Example 74, (S)—N-[1-Benzyl-2-(5-fluoro-3,4-dihydro-1H-isoquinolin-2-yl)-2-oxo-ethyl]-N-(4-pyridin-2-yl-benzyl)-3-(4-trifluoromethyl-phenyl)-acrylamide]: 11 nM; for `O=C([C@H](Cc1ccccc1)N(Cc1ccc(-c2ccccn2)cc1)C(=O)C=Cc1ccc(C(F)(F)F)nc1)N1CCc2cc(F)ccc2C1` [Example 78, (S)—N-[1-Benzyl-2-(6-fluoro-3,4-dihydro-1H-isoquinolin-2-yl)-2-oxo-ethyl]-N-(4-pyridin-2-yl-benzyl)-3-(6-trifluoromethyl-pyridin-3-yl)-acrylamide]: 52 nM; for `COc1ccc(C=CC(=O)N(Cc2ccc(-c3ncccn3)cc2)[C@@H](Cc2ccccc2)C(=O)N2CCc3ccccc3C2)cn1` [Example 93, (S)—N-[1-Benzyl-2-(3,4-dihydro-1H-isoquinolin-2-yl)-2-oxo-ethyl]-3-(6-methoxy-pyridin-3-yl)-N-(4-pyrimidin-2-yl-benzyl)-acrylamide]: 19 nM. On to `Cc1c(C=CC(=O)N(Cc2ccc(-c3ncccn3)cc2)[C@@H](Cc2ccccc2)C(=O)N2CCc3ccccc3C2)cnn1C` [Example 99, (S)—N-[1-Benzyl-2-(3,4-dihydro-1H-isoquinolin-2-yl)-2-oxo-ethyl]-3-(1,5-dimethyl-1H-pyrazol-4-yl)-N-(4-pyrimidin-2-yl-benzyl)-acrylamide], for which the IC50 turned out to be 29 nM.

As for `Cc1ncsc1C=CC(=O)N(Cc1ccc(-c2ncccn2)cc1)[C@@H](Cc1ccccc1)C(=O)N1CCc2ccccc2C1` [Example 104, (S)—N-[1-Benzyl-2-(3,4-dihydro-1H-isoquinolin-2-yl)-2-oxo-ethyl]-3-(4-methyl-thiazol-5-yl)-N-(4-pyrimidin-2-yl-benzyl)-acrylamide], the IC50 stood at 84 nM. In the case of `O=C([C@H](Cc1ccccc1)N(Cc1ccc(-c2cnccn2)cc1)C(=O)C=Cc1ccc(Cl)nc1)N1CCc2ccccc2C1` [Example 111, (S)—N-[1-Benzyl-2-(3,4-dihydro-1H-isoquinolin-2-yl)-2-oxo-ethyl]-3-(6-chloro-pyridin-3-yl)-N-(4-pyrazin-2-yl-benzyl)-acrylamide], the IC50 came out at 35 nM. Same read-out and setting: for `COc1ncc(C=CC(=O)N(Cc2ccc(-c3cnccn3)cc2)[C@@H](Cc2ccccc2)C(=O)N2CCc3ccccc3C2)cn1` [Example 114, (S)—N-[1-Benzyl-2-(3,4-dihydro-1H-isoquinolin-2-yl)-2-oxo-ethyl]-3-(2-methoxy-pyrimidin-5-yl)-N-(4-pyrazin-2-yl-benzyl)-acrylamide] the value was 63 nM; for `Cn1cc(C=CC(=O)N(Cc2ccc(-c3cnccn3)cc2)[C@@H](Cc2ccccc2)C(=O)N2CCc3ccccc3C2)cn1` [Example 116, (S)—N-[1-Benzyl-2-(3,4-dihydro-1H-isoquinolin-2-yl)-2-oxo-ethyl]-3-(1-methyl-1H-pyrazol-4-yl)-N-(4-pyrazin-2-yl-benzyl)-acrylamide], 67 nM; for `Cc1nn(C)c(C)c1C=CC(=O)N(Cc1ccc(-c2cnccn2)cc1)[C@@H](Cc1ccccc1)C(=O)N1CCc2ccccc2C1` [Example 119, (S)—N-[1-Benzyl-2-(3,4-dihydro-1H-isoquinolin-2-yl)-2-oxo-ethyl]-N-(4-pyrazin-2-yl-benzyl)-3-(1,3,5-trimethyl-1H-pyrazol-4-yl)-acrylamide], 5 nM.

Turning to `Cc1nc(C)c(C=CC(=O)N(Cc2ccc(-c3cccnn3)cc2)[C@@H](Cc2ccccc2)C(=O)N2CCc3ccccc3C2)s1` [Example 145, (S)—N-[1-Benzyl-2-(3,4-dihydro-1H-isoquinolin-2-yl)-2-oxo-ethyl]-3-(2,4-dimethyl-thiazol-5-yl)-N-(4-pyridazin-3-yl-benzyl)-acrylamide], the IC50 was 13 nM. The same measure, in the same setting: the same measure for `Cc1nn(C)c(C)c1C=CC(=O)N(Cc1ccc(-n2ccnn2)cc1)[C@@H](Cc1ccccc1)C(=O)N1CCc2ccccc2C1` [Example 157, (S)—N-[1-Benzyl-2-(3,4-dihydro-1H-isoquinolin-2-yl)-2-oxo-ethyl]-N-(4-[1,2,3]-triazol-1-yl-benzyl)-3-(1,3,5-trimethyl-1H-pyrazol-4-yl)-acrylamide]: 2 nM. The same measure, in the same setting: the same measure for `O=C([C@H](Cc1ccccc1)N(Cc1ccc(-n2cncn2)cc1)C(=O)C=Cc1ccc(Cl)nc1)N1CCc2ccccc2C1` [Example 167, (S)—N-[1-Benzyl-2-(3,4-dihydro-1H-isoquinolin-2-yl)-2-oxo-ethyl]-3-(6-chloro-pyridin-3-yl)-N-(4-[1,2,4]-triazol-1-yl-benzyl)-acrylamide]: 8 nM; for `Cn1cc(C=CC(=O)N(Cc2ccc(-n3cncn3)cc2)[C@@H](Cc2ccccc2)C(=O)N2CCc3ccccc3C2)cn1` [Example 172, (S)—N-[1-Benzyl-2-(3,4-dihydro-1H-isoquinolin-2-yl)-2-oxo-ethyl]-3-(1-methyl-1H-pyrazol-4-yl)-N-(4-[1,2,4]-triazol-1-yl-benzyl)-acrylamide]: 25 nM; for `Cc1ncsc1C=CC(=O)N(Cc1ccc(-n2cncn2)cc1)[C@@H](Cc1ccccc1)C(=O)N1CCc2ccccc2C1` [Example 178, (S)—N-[1-Benzyl-2-(3,4-dihydro-1H-isoquinolin-2-yl)-2-oxo-ethyl]-3-(4-methyl-thiazol-5-yl)-N-(4-[1,2,4]-triazol-1-yl-benzyl)-acrylamide]: 28 nM. Still for that read-out and setting: the same measure for `O=C([C@H](Cc1ccccc1)N(Cc1ccc(-c2nccs2)cc1)C(=O)C=Cc1ccc(C(F)(F)F)cc1)N1CCc2ccccc2C1` [Example 199, (S)—N-[1-Benzyl-2-(3,4-dihydro-1H-isoquinolin-2-yl)-2-oxo-ethyl]-N-(4-thiazol-2-yl-benzyl)-3-(4-trifluoromethyl-phenyl)-acrylamide]: 4 nM.

Staying with this experiment, now noted: erythrocytic stages, strain K1 resistant to chloroquine and pyrimethamine, human red cells; read-out: IC50 (nM) on K1.
In the case of `COc1cc(C=CC(=O)N(Cc2ccc(-c3ccccn3)cc2)[C@@H](Cc2ccccc2)C(=O)N2CCc3ccccc3C2)cc(OC)c1` [Example 14, (S)—N-[1-Benzyl-2-(3,4-dihydro-1-H-isoquinolin-2-yl)-2-oxo-ethyl]-3-(3,5-dimethoxy-phenyl)-N-(4-pyridin-2-yl-benzyl)-acrylamide], the IC50 turned out to be 18 nM. On the same count and under the same terms, the same measure for `O=C([C@H](Cc1ccccc1)N(Cc1ccc(-c2ccccn2)cc1)C(=O)C=Cc1cccc(Cl)c1Cl)N1CCc2ccccc2C1` [Example 25, (S)—N-[1-Benzyl-2-(3,4-dihydro-1-H-isoquinolin-2-yl)-2-oxo-ethyl]-3-(2,3-dichloro-phenyl)-N-(4-pyridin-2-yl-benzyl)-acrylamide]: 13 nM; for `Cc1ccc(C=CC(=O)N(Cc2ccc(-c3ccccn3)cc2)[C@@H](Cc2ccccc2)C(=O)N2CCc3ccccc3C2)cc1` [Example 32, (S)—N-[1-Benzyl-2-(3,4-dihydro-1-H-isoquinolin-2-yl)-2-oxo-ethyl]-N-(4-pyridin-2-yl-benzyl)-3-p-tolyl-acrylamide]: 7.5 nM. On the same count and under the same terms, the same measure for `CN(C)c1ccc(C=CC(=O)N(Cc2ccc(-c3ccccn3)cc2)[C@@H](Cc2ccccc2)C(=O)N2CCc3ccccc3C2)cc1` [Example 38, (S)—N-[1-Benzyl-2-(3,4-dihydro-1-H-isoquinolin-2-yl)-2-oxo-ethyl]-3-(4-dimethylamino-phenyl)-N-(4-pyridin-2-yl-benzyl)-acrylamide]: 10 nM.

Usually IC50 stands for the concentration needed to halve the response being measured.
